Experimental data taken from patent publication US20240150377A1, “MODULATORS OF CYSTIC FIBROSIS TRANSMEMBRANE CONDUCTANCE REGULATOR” (VERTEX PHARMACEUTICALS INCORPORATED, priority 2020, published 2024).

Target: T1, CFTR (Homo sapiens, UniProt P13569, DEL508-508)
T1 construct: endogenous in cells; host or cells: primary human bronchial epithelial cells from CF subjects (F508del/MF-HBE), differentiated at air-liquid interface
Experiment: HBE2 assay: Ussing chamber assay of CFTR-mediated short-circuit currents
Type: cell-based
Details: 3 μM corrector; F508del/MF-HBE cells; with 44 nM potentiator, 18-24 hours, 20% human serum
In short: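 F508del/MF-HBE cultured >14 days at air-liquid interface, mounted in Ussing chambers; transepithelial short-circuit current recorded under voltage clamp (Vhold=0 mV) at 37 °C. CFTR-mediated ISC (μA/cm^2) taken as peak forskolin response relative to steady-state current after inhibition; corrector activity assessed this way.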

T1 sequence (P13569 with tags, fused parts or gaps DEL508-508): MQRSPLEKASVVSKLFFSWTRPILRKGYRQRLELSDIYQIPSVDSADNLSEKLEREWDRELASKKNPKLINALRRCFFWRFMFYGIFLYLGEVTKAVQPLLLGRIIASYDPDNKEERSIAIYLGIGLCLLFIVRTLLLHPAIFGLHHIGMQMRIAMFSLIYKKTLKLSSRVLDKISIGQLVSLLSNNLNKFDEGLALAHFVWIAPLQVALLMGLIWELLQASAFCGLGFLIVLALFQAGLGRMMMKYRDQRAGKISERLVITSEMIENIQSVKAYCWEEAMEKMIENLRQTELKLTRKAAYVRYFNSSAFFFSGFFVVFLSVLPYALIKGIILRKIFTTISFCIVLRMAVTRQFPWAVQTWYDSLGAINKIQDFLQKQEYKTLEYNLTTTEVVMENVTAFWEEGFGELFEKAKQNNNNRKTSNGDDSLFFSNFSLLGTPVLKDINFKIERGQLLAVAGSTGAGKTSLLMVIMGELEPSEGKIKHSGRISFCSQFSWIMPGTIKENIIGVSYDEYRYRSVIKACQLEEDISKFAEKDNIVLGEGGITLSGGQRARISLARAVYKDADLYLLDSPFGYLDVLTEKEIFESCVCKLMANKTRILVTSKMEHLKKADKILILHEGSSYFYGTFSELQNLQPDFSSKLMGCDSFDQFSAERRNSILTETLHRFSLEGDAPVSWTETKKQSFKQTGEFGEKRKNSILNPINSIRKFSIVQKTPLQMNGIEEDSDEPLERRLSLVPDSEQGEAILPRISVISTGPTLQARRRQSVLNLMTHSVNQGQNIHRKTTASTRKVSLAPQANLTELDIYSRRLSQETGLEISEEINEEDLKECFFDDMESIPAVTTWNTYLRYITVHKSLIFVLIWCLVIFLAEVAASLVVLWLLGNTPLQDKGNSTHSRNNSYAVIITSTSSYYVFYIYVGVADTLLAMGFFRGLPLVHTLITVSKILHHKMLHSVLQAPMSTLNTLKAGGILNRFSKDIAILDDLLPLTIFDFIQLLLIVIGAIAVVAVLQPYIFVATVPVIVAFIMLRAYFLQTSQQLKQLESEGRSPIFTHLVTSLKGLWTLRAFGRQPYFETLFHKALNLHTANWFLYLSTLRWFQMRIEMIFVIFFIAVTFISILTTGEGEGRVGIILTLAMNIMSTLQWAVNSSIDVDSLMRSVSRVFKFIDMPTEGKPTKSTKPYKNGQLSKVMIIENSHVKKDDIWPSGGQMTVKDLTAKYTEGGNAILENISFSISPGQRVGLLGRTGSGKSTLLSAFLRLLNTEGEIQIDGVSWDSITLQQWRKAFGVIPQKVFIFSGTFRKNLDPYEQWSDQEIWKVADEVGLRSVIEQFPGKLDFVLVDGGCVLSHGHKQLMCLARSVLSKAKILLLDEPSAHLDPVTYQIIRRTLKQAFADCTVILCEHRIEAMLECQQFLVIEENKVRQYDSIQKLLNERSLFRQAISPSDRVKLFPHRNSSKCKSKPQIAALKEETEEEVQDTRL

SMILES	HBE2 Activity at 3 μM (%)
Cc1cccc(C)c1-c1cc2nc(n1)NS(=O)(=O)c1cccc(c1)C(=O)N(Cc1cncc(N3CCCC4CCC43)n1)[C@H](CCC(C)(C)C)CO2 (stereo in doubt) [Compound 1782]	+++ (+++ is >60+)
Cc1cccc(C)c1-c1cc2nc(n1)NS(=O)(=O)c1cccc(c1)C(=O)N(Cc1cncc(N(C)[C@H]3C[C@@H](F)C3)n1)[C@H](CCC(C)(C)C)CO2 [Compound 1848]	+++ (+++ is >60+)
Cc1cccc(C)c1-c1cc2nc(n1)NS(=O)(=O)c1cccc(c1)C(=O)N(Cc1cncc(N3CCCC4CCC43)n1)[C@H](CC1(C)CCC1)CO2 (stereo partly shown) [Compound 1794]	+++ (+++ is >60+)
Cc1cccc(C)c1-c1cc2nc(n1)NS(=O)(=O)c1cccc(c1)C(=O)N(Cc1cncc(N(C)[C@H]3CC[C@@H]3C)n1)[C@H](CC(C)(C)C)CO2 (stereo in doubt) [Compound 1773]	+++ (+++ is >60+)
Cc1cccc(C)c1-c1cc2nc(n1)NS(=O)(=O)c1cccc(c1)C(=O)N(Cc1cncc(N(C)C3CCC3)n1)[C@]1(CCC(C)(C)C1)CO2 (single isomer, unassigned) [Compound 1326, 12-[[6-[cyclobutyl(methyl)amino]pyrazin-2-yl]methyl]-6-(2,6-dimethylphenyl)-1′,1′-dimethyl-2,2-dioxo-spiro[9-oxa-2λ^6-thia-3,5,12,19-tetrazatricyclo[12.3.1.14,8]nonadeca-1(18),4(19),5,7,14,16-hexaene-11,3′-cyclopentane]-13-one]	+++ (+++ is >60+)
Cc1cccc(C)c1-c1cc2nc(n1)NS(=O)(=O)c1cccc(c1)C(=O)N(Cc1cncc(N(C)C3CCC3)n1)[C@]1(CCC(C)(C)C1)CO2 (single isomer, unassigned) [Compound 1325, 12-[[6-[cyclobutyl(methyl)amino]pyrazin-2-yl]methyl]-6-(2,6-dimethylphenyl)-1′,1′-dimethyl-2,2-dioxo-spiro[9-oxa-2λ^6-thia-3,5,12,19-tetrazatricyclo[12.3.1.14,8]nonadeca-1(18),4(19),5,7,14,16-hexaene-11,3′-cyclopentane]-13-one]	+++ (+++ is >60+)
Cc1cccc(C)c1-c1cc2nc(n1)NS(=O)(=O)c1cccc(c1)C(=O)N(Cc1cnc3cc(C(C)C)n(C)c3n1)[C@H](C[C@H]1CCCOC1)CO2 (stereo in doubt) [Compound 1932]	+++ (+++ is >60+)
Cc1cccc(C)c1-c1cc2nc(n1)NS(=O)(=O)c1cccc(c1)C(=O)N(Cc1cncc(N3CCCC4CCC43)n1)[C@H](CC1(C)CCC1)CO2 (stereo partly shown) [Compound 1793]	+++ (+++ is >60+)
Cc1cccc(C)c1-c1cc2nc(n1)NS(=O)(=O)c1cccc(c1)C(=O)N(Cc1cncc(N3CCC[C@H]3C)n1)[C@H](COC(C)C)CO2 [Compound 1937]	+++ (+++ is >60+)
Cc1cccc(C)c1-c1cc2nc(n1)NS(=O)(=O)c1cccc(c1)C(=O)N(Cc1cnc3cc(C(C)C)n(C)c3n1)[C@H](CCC1CC1)CO2 [Compound 1828]	+++ (+++ is >60+)
Cc1cccc(C)c1-c1cc2nc(n1)NS(=O)(=O)c1cccc(c1)C(=O)N(Cc1cncc(N(C)C3CCC3)n1)[C@@H]1CCN(CC(C)(C)C)CC1O2 (stereo in doubt) [Compound 1765]	++ (++ is 30-60%)
Cc1cccc(C)c1-c1cc2nc(n1)NS(=O)(=O)c1cccc(c1)C(=O)N(Cc1cncc(N3CCC[C@H]4CC[C@H]43)n1)[C@H](CCC(C)C)CO2 (stereo in doubt) [Compound 1746]	+++ (+++ is >60+)
Cc1cccc(C)c1-c1cc2nc(n1)NS(=O)(=O)c1cccc(c1)C(=O)N(Cc1cccc(N3CCC[C@H]3C(C)C)n1)[C@H](CC1(C)CCC1)CO2 [Compound 1776]	+++ (+++ is >60+)
Cc1cccc(C)c1-c1cc2nc(n1)NS(=O)(=O)c1cccc(c1)C(=O)N(Cc1cnc3cc(C(C)C)n(C)c3n1)[C@H](CC(C)(C)C)CO2 [Compound 1756]	+++ (+++ is >60+)
CO[C@@H](C)[C@@H]1CCCN1c1cncc(CN2C(=O)c3cccc(c3)S(=O)(=O)Nc3nc(cc(-c4c(C)cccc4C)n3)OC[C@H]2CCC(C)(C)C)n1 [Compound 1936]	+++ (+++ is >60+)
Cc1cccc(C)c1-c1cc2nc(n1)NS(=O)(=O)c1cccc(c1)C(=O)N(Cc1cncc(N3CCCC[C@H]3C)n1)[C@@H](C1CC(C)(C)C1)CO2 [Compound 1898]	+++ (+++ is >60+)
CCC(C)(C)C[C@@H]1COc2cc(-c3c(C)cccc3C)nc(n2)NS(=O)(=O)c2cccc(c2)C(=O)N1Cc1cncc(N2CCCC[C@H]2C)n1 [Compound 1863]	+++ (+++ is >60+)
Cc1cccc(C)c1-c1cc2nc(n1)NS(=O)(=O)c1cccc(c1)C(=O)N(Cc1cncc(N(C)C(C)C)n1)[C@H](CCC(C)(C)C)CO2 [Compound 1788]	+++ (+++ is >60+)
Cc1cccc(C)c1-c1cc2nc(n1)NS(=O)(=O)c1cccc(c1)C(=O)N(Cc1cncc(N3[C@H](C)C[C@@H]3C)n1)[C@H](CC(C)(C)C)CO2 [Compound 1728]	+++ (+++ is >60+)
Cc1cccc(C)c1-c1cc2nc(n1)NS(=O)(=O)c1cccc(c1)C(=O)N(Cc1cnc3cc(C(C)C)n(C)c3n1)[C@H](CC1CCCCC1)CO2 [Compound 1934]	+++ (+++ is >60+)

Same assay, conditions: 3 μM; F508del/MF-HBE cells; with 44 nM potentiator; 18-24 hours; 20% human serum

SMILES	HBE2 Activity at 3 μM (%)
Cc1cccc(C)c1-c1cc2nc(n1)NS(=O)(=O)c1cccc(c1)C(=O)N(Cc1cccc(N3CCC[C@@]3(C)CO)n1)[C@H](CC(C)(C)C)CO2 [Compound 1586]	+++ (+++ is >60+)
COC[C@@H]1CCN1c1ccnc(CN2C(=O)c3cccc(c3)S(=O)(=O)Nc3nc(cc(-c4c(C)cccc4C)n3)OC[C@H]2CC(C)(C)C)n1 [Compound 1553]	+++ (+++ is >60+)
Cc1cccc(C)c1-c1cc2nc(n1)NS(=O)(=O)c1cccc(c1)CN(Cc1ncc(OC(C)C)cn1)[C@H](CC(C)(C)C)CO2 [Compound 1298]	++ (++ is 30-60%)
Cc1cccc(C)c1-c1cc2nc(n1)NS(=O)(=O)c1cccc(c1)C(=O)N(Cc1cncc(N(C)C3CCC3)n1)[C@H](CC(C)(C)C)CO2 [Compound 1310, (11R)-12-[[6-[Cyclobutyl(methyl)amino]pyrazin-2-yl]methyl]-6-(2,6-dimethylphenyl)-11-(2,2-dimethylpropyl)-2,2-dioxo-9-oxa-2λ^6-thia-3,5,12,19-tetrazatricyclo[12.3.1.14,8]nonadeca-1(18),4(19),5,7,14,16-hexaen-13-one]	+++ (+++ is >60+)
Cc1cccc(C)c1-c1cc2nc(n1)NS(=O)(=O)c1cccc(c1)C(=O)N(Cc1cncc(N3C(=O)OC[C@H]3C)n1)[C@H](CC(C)(C)C)CO2 [Compound 1653]	+++ (+++ is >60+)
Cc1cccc(C)c1-c1cc2nc(n1)NS(=O)(=O)c1cccc(c1)C(=O)N(Cc1cncc(N3CCCC3=O)n1)[C@H](CC(C)(C)C)CO2 [Compound 1652]	+++ (+++ is >60+)
Cc1cccc(C)c1-c1cc2nc(n1)NS(=O)(=O)c1cccc(c1)C(=O)N(Cc1cncc(N3C[C@H]4CCC[C@H]43)n1)[C@H](CC(C)(C)C)CO2 [Compound 1708]	+++ (+++ is >60+)
Cc1cccc(C)c1-c1cc2nc(n1)NS(=O)(=O)c1cccc(c1)C(=O)N(Cc1cncc(N(C)C3CCC3)n1)[C@H](CC1CCC1)CO2 [Compound 1669]	+++ (+++ is >60+)
Cc1cccc(C)c1-c1cc2nc(n1)NS(=O)(=O)c1cccc(c1)C(=O)N(Cc1ncc(OC3CCCC3)c[n+]1[O-])[C@H](CC(C)C)CO2 [Compound 1305, (11R)-12-[[5-(Cyclopentoxy)-1-oxido-pyrimidin-1-ium-2-yl]methyl]-6-(2,6-dimethylphenyl)-11-isobutyl-2,2-dioxo-9-oxa-2λ^6-thia-3,5,12,19-tetrazatricyclo[12.3.1.14,8]nonadeca-1(18),4(19),5,7,14,16-hexaen-13-one]	+++ (+++ is >60+)
Cc1cccc(C)c1-c1cc2nc(n1)NS(=O)(=O)c1cccc(c1)C(=O)N(Cc1cncc(N3CCC[C@@H]4COC[C@@H]43)n1)[C@H](CC(C)(C)C)CO2 [Compound 1680]	+++ (+++ is >60+)
CO[C@H]1C[C@@H](N(C)c2cncc(CN3C(=O)c4cccc(c4)S(=O)(=O)Nc4nc(cc(-c5c(C)cccc5C)n4)OC[C@H]3CC(C)(C)C)n2)C1 [Compound 1611]	+++ (+++ is >60+)
CCN(C)c1cncc(CN2C(=O)c3cccc(c3)S(=O)(=O)Nc3nc(cc(-c4c(C)cccc4C)n3)OC[C@H]2CC(C)(C)C)n1 [Compound 1695]	+++ (+++ is >60+)

Same assay, conditions: F508del/MF-HBE cells; with 44 nM potentiator; 18-24 hours; 20% human serum

SMILES	EC50 [nM]
Cc1cccc(C)c1-c1cc2nc(n1)NS(=O)(=O)c1cccc(c1)C(=O)N(Cc1cncc(N(C)C3CCC3)n1)[C@H](CC(C)(C)C)CO2 [Compound 1310, (11R)-12-[[6-[Cyclobutyl(methyl)amino]pyrazin-2-yl]methyl]-6-(2,6-dimethylphenyl)-11-(2,2-dimethylpropyl)-2,2-dioxo-9-oxa-2λ^6-thia-3,5,12,19-tetrazatricyclo[12.3.1.14,8]nonadeca-1(18),4(19),5,7,14,16-hexaen-13-one]	< 1000
Cc1cccc(C)c1-c1cc2nc(n1)NS(=O)(=O)c1cccc(c1)C(=O)N(Cc1cncc(N(C)C3CC(F)(F)C3)n1)[C@H](CC(C)(C)C)CO2 [Compound 1602]	< 1000
Cc1cccc(C)c1-c1cc2nc(n1)NS(=O)(=O)c1cccc(c1)C(=O)N(Cc1cncc(N(C)C3CCC3)n1)[C@H](CC1CCC1)CO2 [Compound 1669]	< 1000
Cc1cccc(C)c1-c1cc2nc(n1)NS(=O)(=O)c1cccc(c1)C(=O)N(Cc1cncc(N3CCC34CCC4)n1)[C@H](CC(C)(C)C)CO2 [Compound 1604]	< 1000

Same assay, conditions: F508del/MF-HBE cells; with 44 nM potentiator; 18-24 hours; 20% human serum; read-out: HBE2 Max activity (%)

SMILES	Emax [%]
Cc1cccc(C)c1-c1cc2nc(n1)NS(=O)(=O)c1cccc(c1)C(=O)N(Cc1cncc(N(C)C3CCC3)n1)[C@H](CC(C)(C)C)CO2 [Compound 1310, (11R)-12-[[6-[Cyclobutyl(methyl)amino]pyrazin-2-yl]methyl]-6-(2,6-dimethylphenyl)-11-(2,2-dimethylpropyl)-2,2-dioxo-9-oxa-2λ^6-thia-3,5,12,19-tetrazatricyclo[12.3.1.14,8]nonadeca-1(18),4(19),5,7,14,16-hexaen-13-one]	> 60
Cc1cccc(C)c1-c1cc2nc(n1)NS(=O)(=O)c1cccc(c1)C(=O)N(Cc1cncc(N(C)C3CC(F)(F)C3)n1)[C@H](CC(C)(C)C)CO2 [Compound 1602]	> 60
Cc1cccc(C)c1-c1cc2nc(n1)NS(=O)(=O)c1cccc(c1)C(=O)N(Cc1cncc(N(C)C3CCC3)n1)[C@H](CC1CCC1)CO2 [Compound 1669]	> 60
Cc1cccc(C)c1-c1cc2nc(n1)NS(=O)(=O)c1cccc(c1)C(=O)N(Cc1cncc(N3CCC34CCC4)n1)[C@H](CC(C)(C)C)CO2 [Compound 1604]	> 60
